{"source": "paper PMC7115408", "about": "(European Journal of Medicinal Chemistry, 2014)", "key": {"[1]": {"tested_on": "Bacillus subtilis", "assay": "Well diffusion zone of inhibition, antibacterial", "format": "cell-based", "conditions": "for Antibacterial activity against B. subtilis (in words): zone of inhibition compared to Ampicillin; for zone of inhibition at 250 µg/disc: Bacillus subtilis, 48 h, read-out: Diameter of inhibition zone, Bacillus subtilis"}, "[2]": {"tested_on": "HBV", "format": "cell-based", "conditions": "read-out: HBV EC50; DNA virion assay"}, "[3]": {"tested_on": "WNV", "assay": "In vitro antiviral screening, visual and neutral red tests", "format": "cell-based, West Nile virus (WNV)", "conditions": "read-out: WNV EC50"}, "[4]": {"tested_on": "influenza B virus", "assay": "Anti influenza screening, cytopathic effect and cytotoxicity assays", "format": "cell-based", "conditions": "read-out: Influenza Type-B EC50"}, "[5]": {"tested_on": "HCV", "format": "cell-based", "conditions": "read-out: HCV EC50"}, "[6]": {"tested_on": "HSV-1", "assay": "In vitro antiviral screening, cytopathic effect and neutral red assays", "format": "cell-based", "conditions": "read-out: HSV-1 EC50"}, "[7]": {"tested_on": "influenza A virus H3N2", "assay": "Anti influenza screening, cytopathic effect and cytotoxicity assays", "format": "cell-based", "conditions": "read-out: Influenza Type-A H3N2 EC50"}, "[8]": {"tested_on": "SARS-CoV", "assay": "microbe, parasite or virus in culture", "format": "cell-based, severe acute respiratory syndrome coronavirus (SARS-CoV)", "conditions": "for EC50: read-out: SARS-CoV EC50"}, "[9]": {"tested_on": "influenza A virus H5N1", "format": "cell-based", "conditions": "for EC50: read-out: Influenza Type-A H5N1 EC50"}, "[10]": {"tested_on": "HSV-2", "assay": "In vitro antiviral screening, cytopathic effect and neutral red assays", "format": "cell-based", "conditions": "read-out: HSV-2 EC50"}, "[11]": {"tested_on": "Escherichia coli", "assay": "Well diffusion zone of inhibition, antibacterial", "format": "cell-based", "conditions": "for zone of inhibition at 250 µg/disc: Escherichia coli, 48 h, read-out: Diameter of inhibition zone, Escherichia coli"}, "[12]": {"tested_on": "Asperigillus niger", "assay": "Well diffusion zone of inhibition, antifungal", "format": "cell-based", "conditions": "Aspergillus niger, read-out: Diameter of inhibition zone, Asperigillus niger"}, "[13]": {"tested_on": "influenza A virus H1N1", "assay": "Anti influenza screening, cytopathic effect and cytotoxicity assays", "format": "cell-based", "conditions": "read-out: Influenza Type-A H1N1 EC50"}}, "note": "Entries after “also recorded” stand apart in the source; their conditions may differ. Like-named read-outs stand apart in the source and are kept apart here."}
{"compound": "C=CCOc1nc(-c2ccccn2)cc(-c2ccc(Cl)cc2)c1C#N", "note": "[Compound 9, 2-(Allyloxy)-4-(4-chlorolphenyl)-6-(2-pyridyl)nicotinonitrile]", "values": [{"measurement": "Antibacterial activity against B. subtilis (in words)", "setting": "[1]", "result": "lower antibacterial activity"}]}
{"compound": "N#Cc1c(-c2ccc(Cl)cc2)cc(-c2ccccn2)n(CCCO)c1=O", "note": "[Compound 8a, 4-(4-Chlorolphenyl)-1-(3-hydroxypropyl)-2-oxo-6-(2-pyridyl)nicotinonitrile]", "values": [{"measurement": "Antibacterial activity against B. subtilis (in words)", "setting": "[1]", "result": "lower antibacterial activity"}]}
{"compound": "N#Cc1c(-c2ccc(Cl)cc2)cc(-c2ccccn2)nc1OCCCCO", "note": "[Compound 5, 4-(4-Chlorolphenyl)-2-(4-hydroxybutyloxy)-6-(2-pyridyl)nicotinonitrile]", "values": [{"measurement": "Antibacterial activity against B. subtilis (in words)", "setting": "[1]", "result": "lower antibacterial activity"}]}
{"compound": "4-(4-Isopropylphenyl)-2-oxo-6-(2-thienyl)nicotinonitrile [Compound 1b]", "values": [{"measurement": "EC50", "setting": "[2]", "result": "> 100", "unit": "µM"}, {"measurement": "EC50", "setting": "[3]", "result": "> 2.2", "unit": "µM"}, {"measurement": "EC50", "setting": "[4]", "result": 46, "unit": "µM"}, {"measurement": "EC50", "setting": "[5]", "result": "> 100", "unit": "µM"}, {"measurement": "EC50", "setting": "[6]", "result": "> 300", "unit": "µM"}, {"measurement": "EC50", "setting": "[7]", "result": 22, "unit": "µM"}, {"measurement": "EC50", "setting": "[8]", "result": "> 26", "unit": "µM"}, {"measurement": "EC50", "setting": "[9]", "result": 32, "unit": "µM"}, {"measurement": "EC50", "setting": "[10]", "result": "> 300", "unit": "µM"}]}
{"compound": "CC(=O)OC[C@H]1O[C@@H](n2c(-c3cccs3)cc(-c3ccc(C(C)C)cc3)c(C#N)c2=O)[C@H](OC(C)=O)[C@@H](OC(C)=O)[C@@H]1OC(C)=O", "note": "[Compound 2bAc]", "values": [{"measurement": "Antibacterial activity against B. subtilis (in words)", "setting": "[1]", "result": "lower antibacterial activity"}]}
{"compound": "CC(=O)OCCOCn1c(-c2cccs2)cc(-c2cccs2)c(C#N)c1=O", "note": "[Compound 7cAc, 1-[(2-Acetoxyethoxy)methyl]-2-oxo-4,6-di(2-thienyl)nicotinonitrile]", "values": [{"measurement": "Antibacterial activity against B. subtilis (in words)", "setting": "[1]", "result": "moderate antibacterial activity"}]}
{"compound": "CC(=O)OC[C@H]1O[C@@H](n2c(-c3cccs3)cc(-c3cccs3)c(C#N)c2=O)[C@H](OC(C)=O)[C@@H](OC(C)=O)[C@@H]1OC(C)=O", "note": "[Compound 2cAc]", "values": [{"measurement": "EC50", "setting": "[8]; Severe acute respiratory syndrome coronavirus", "result": "> 32", "unit": "µM"}, {"measurement": "Antibacterial activity against B. subtilis (in words)", "setting": "[1]", "result": "lower antibacterial activity"}]}
{"compound": "N#Cc1c(-c2cccs2)cc(-c2cccs2)n([C@@H]2O[C@H](CO)[C@@H](O)[C@H](O)[C@H]2O)c1=O", "note": "[Compound 2c, 1-(β-D-Glucopyranosyl)-2-oxo-4,6-di(2-thienyl)nicotinonitrile]", "values": [{"measurement": "zone of inhibition at 250 µg/disc", "setting": "[11]", "result": 0, "unit": "mm"}, {"measurement": "zone of inhibition at 250 µg/disc", "setting": "[12]", "result": 8, "unit": "mm"}, {"measurement": "Antibacterial activity against B. subtilis (in words)", "setting": "[1]", "result": "lower antibacterial activity"}]}
{"compound": "CC(C)c1ccc(-c2cc(-c3cccs3)n(COCCO)c(=O)c2C#N)cc1", "note": "[Compound 7b, 1-[(2-Hydroxyethoxy)methyl]-4-(4-isopropylphenyl)-2-oxo-6-(2-thienyl)nicotinonitrile]", "values": [{"measurement": "Antibacterial activity against E. coli (in words)", "setting": "[11]; zone of inhibition", "result": "no activity"}, {"measurement": "Antibacterial activity against B. subtilis (in words)", "setting": "[1]", "result": "good activity"}]}
{"compound": "CC(=O)OCCCCOc1nc(-c2ccccn2)cc(-c2ccc(Cl)cc2)c1C#N", "note": "[Compound 5Ac]", "values": [{"measurement": "Antibacterial activity against B. subtilis (in words)", "setting": "[1]", "result": "lower antibacterial activity"}]}
{"compound": "CC(=O)OC[C@H]1O[C@@H](n2c(-c3ccccn3)cc(-c3ccc(Cl)cc3)c(C#N)c2=O)[C@H](OC(C)=O)[C@@H](OC(C)=O)[C@@H]1OC(C)=O", "note": "[Compound 2aAc]", "values": [{"measurement": "Anti SARS-CoV activity (in words)", "setting": "[8]", "result": "slightly active by visual, but not neutral red test; also recorded: active"}, {"measurement": "Anti influenza A (H5N1) activity (in words)", "setting": "[9]", "result": "good and slightly active and active"}]}
{"compound": "2-Oxo-4,6-di(2-thienyl)nicotinonitrile [Compound 1c]", "values": [{"measurement": "EC50", "setting": "[2]", "result": "> 100", "unit": "µM"}, {"measurement": "EC50", "setting": "[3]", "result": "> 4.6", "unit": "µM"}, {"measurement": "EC50", "setting": "[4]", "result": "> 100", "unit": "µM"}, {"measurement": "EC50", "setting": "[5]", "result": "> 100", "unit": "µM"}, {"measurement": "EC50", "setting": "[6]", "result": "> 12", "unit": "µM"}, {"measurement": "EC50", "setting": "[7]", "result": 16, "unit": "µM"}, {"measurement": "EC50", "setting": "[8]", "result": "> 100", "unit": "µM"}, {"measurement": "EC50", "setting": "[13]", "result": 32, "unit": "µM"}, {"measurement": "EC50", "setting": "[9]", "result": "> 100", "unit": "µM"}, {"measurement": "EC50", "setting": "[10]", "result": "> 12", "unit": "µM"}]}
{"compound": "CC(C)c1ccc(-c2cc(-c3cccs3)n([C@@H]3O[C@H](CO)[C@@H](O)[C@H](O)[C@H]3O)c(=O)c2C#N)cc1", "note": "[Compound 2b, 1-(β-D-Glucopyranosyl)-4-(4-isopropylphenyl)-2-oxo-6-(2-thienyl)nicotinonitrile]", "values": [{"measurement": "Antibacterial activity against B. subtilis (in words)", "setting": "[1]", "result": "moderate antibacterial activity"}]}
{"compound": "CC(=O)OC[C@H]1O[C@@H](n2c(-c3cccs3)cc(-c3ccc(C(C)C)cc3)c(C#N)c2=O)[C@H](OC(C)=O)[C@@H](OC(C)=O)[C@H]1OC(C)=O", "note": "[Compound 3bAc]", "values": [{"measurement": "zone of inhibition at 250 µg/disc", "setting": "[11]", "result": 0, "unit": "mm"}, {"measurement": "zone of inhibition at 250 µg/disc", "setting": "[1]", "result": 1, "unit": "mm"}, {"measurement": "Antibacterial activity against B. subtilis (in words)", "setting": "[1]", "result": "lower antibacterial activity"}]}
{"compound": "CC(=O)OC[C@H]1O[C@@H](n2c(-c3ccccn3)cc(-c3ccc(Cl)cc3)c(C#N)c2=O)[C@H](OC(C)=O)[C@@H](OC(C)=O)[C@H]1OC(C)=O", "note": "[Compound 3aAc]", "values": [{"measurement": "zone of inhibition at 250 µg/disc", "setting": "[1]", "result": 1, "unit": "mm"}, {"measurement": "Antibacterial activity against B. subtilis (in words)", "setting": "[1]", "result": "lower antibacterial activity"}]}
{"compound": "CC(C)c1ccc(-c2cc(-c3cccs3)n([C@@H]3O[C@H](CO)[C@H](O)[C@H](O)[C@H]3O)c(=O)c2C#N)cc1", "note": "[Compound 3b, 1-(β-D-Galactopyranosyl)-4-(4-isopropylphenyl)-2-oxo-6-(2-thienyl)nicotinonitrile]", "values": [{"measurement": "zone of inhibition at 250 µg/disc", "setting": "[12]", "result": 8, "unit": "mm"}, {"measurement": "Antibacterial activity against B. subtilis (in words)", "setting": "[1]", "result": "lower antibacterial activity"}]}
{"compound": "N#Cc1c(-c2cccs2)cc(-c2cccs2)n([C@@H]2O[C@H](CO)[C@H](O)[C@H](O)[C@H]2O)c1=O", "note": "[Compound 3c, 1-(β-D-Galactopyranosyl)-2-oxo-4,6-di(2-thienyl)-nicotinonitrile]", "values": [{"measurement": "Antibacterial activity against B. subtilis (in words)", "setting": "[1]", "result": "lower antibacterial activity"}]}
{"compound": "N#Cc1c(-c2ccc(Cl)cc2)cc(-c2ccccn2)n([C@@H]2O[C@H](CO)[C@H](O)[C@H](O)[C@H]2O)c1=O", "note": "[Compound 3a, 4-(4-Chlorophenyl)-1-(β-D-galactopyranosyl)-2-oxo-6-(2-pyridyl)nicotinonitrile]", "values": [{"measurement": "Antibacterial activity against B. subtilis (in words)", "setting": "[1]", "result": "lower antibacterial activity"}]}
{"compound": "4-(4-Chlorophenyl)-2-oxo-6-(2-pyridyl)nicotinonitrile [Compound 1a]", "values": [{"measurement": "EC50", "setting": "[2]", "result": "> 100", "unit": "µM"}, {"measurement": "EC50", "setting": "[3]", "result": "> 2.2", "unit": "µM"}, {"measurement": "EC50", "setting": "[4]", "result": "> 36", "unit": "µM"}, {"measurement": "EC50", "setting": "[5]", "result": "> 100", "unit": "µM"}, {"measurement": "EC50", "setting": "[6]", "result": "> 300", "unit": "µM"}, {"measurement": "EC50", "setting": "[7]", "result": "> 2.6", "unit": "µM"}, {"measurement": "EC50", "setting": "[8]", "result": "> 0.32", "unit": "µM"}, {"measurement": "EC50", "setting": "[13]", "result": 26, "unit": "µM"}, {"measurement": "EC50", "setting": "[9]", "result": "> 100", "unit": "µM"}, {"measurement": "EC50", "setting": "[10]", "result": "> 300", "unit": "µM"}]}
